How the values were obtained:
[1] = Drug uptake in anesthetized cynomolgus monkey brain cerebellum after 145 mins postinjection; type: ADME, organism-based, Macaca fascicularis; settings: in vivo
[2] = Ratio of drug uptake in thalamus to cerebellum in anesthetized cynomolgus monkey after 205 mins postinjection; type: ADME, organism-based, Macaca fascicularis; settings: in vivo
[3] = Drug uptake in anesthetized cynomolgus monkey brain cerebellum after 105 mins postinjection; type: ADME, organism-based, Macaca fascicularis; settings: in vivo, 1.75 h
[4] = Drug uptake in anesthetized cynomolgus monkey brain occipital lobe after 12.5 mins postinjection; type: ADME, organism-based, Macaca fascicularis; settings: in vivo
[5] = Drug uptake in anesthetized cynomolgus monkey brain cerebellum after 185 mins postinjection; type: ADME, organism-based, Macaca fascicularis; settings: in vivo
[6] = Drug uptake in anesthetized cynomolgus monkey brain occipital lobe after 185 mins postinjection; type: ADME, organism-based, Macaca fascicularis; settings: in vivo
[7] = Drug uptake in anesthetized cynomolgus monkey brain cerebellum after 125 mins postinjection; type: ADME, organism-based, Macaca fascicularis; settings: in vivo
[8] = Drug uptake in anesthetized cynomolgus monkey brain occipital lobe after 202.5 mins postinjection; type: ADME, organism-based, Macaca fascicularis; settings: in vivo, 3.375 h
Putamen [9] = test: Drug uptake in anesthetized cynomolgus monkey brain putamen after 197.5 mins postinjection; type: ADME, organism-based, Macaca fascicularis; settings: in vivo
Pons [10] = test: Drug uptake in anesthetized cynomolgus monkey brain pons after 207.5 mins postinjection; type: ADME, organism-based, Macaca fascicularis; settings: in vivo
[11] = Drug uptake in anesthetized cynomolgus monkey brain cerebellum after 182.5 mins postinjection; type: ADME, organism-based, Macaca fascicularis; settings: in vivo
Pons [12] = test: Drug uptake in anesthetized cynomolgus monkey brain pons after 192.5 mins postinjection; type: ADME, organism-based, Macaca fascicularis; settings: in vivo
Thalamus [13] = test: Drug uptake in anesthetized cynomolgus monkey brain thalamus after 192.5 mins postinjection; type: ADME, organism-based, Macaca fascicularis; settings: in vivo
Pons [14] = test: Drug uptake in anesthetized cynomolgus monkey brain pons after 202.5 mins postinjection; type: ADME, organism-based, Macaca fascicularis; settings: in vivo, 3.375 h
Caudate [15] = test: Drug uptake in anesthetized cynomolgus monkey brain caudate after 197.5 mins postinjection; type: ADME, organism-based, Macaca fascicularis, Caudate nucleus; settings: in vivo
[16] = Drug uptake in anesthetized cynomolgus monkey brain cerebellum after 202.5 mins postinjection; type: ADME, organism-based, Macaca fascicularis; settings: in vivo, 3.375 h
Midbrain [17] = test: Drug uptake in anesthetized cynomolgus monkey brain midbrain after 182.5 mins postinjection; type: ADME, organism-based, Macaca fascicularis; settings: in vivo
[18] = Drug uptake in anesthetized cynomolgus monkey brain frontal lobe after 197.5 mins postinjection; type: ADME, organism-based, Macaca fascicularis; settings: in vivo
[19] = Drug uptake in anesthetized cynomolgus monkey brain cerebellum after 197.5 mins postinjection; type: ADME, organism-based, Macaca fascicularis; settings: in vivo
Caudate [20] = test: Drug uptake in anesthetized cynomolgus monkey brain caudate after 202.5 mins postinjection; type: ADME, organism-based, Macaca fascicularis, Caudate nucleus; settings: in vivo, 3.375 h
Medulla [21] = test: Drug uptake in anesthetized cynomolgus monkey brain medulla after 197.5 mins postinjection; type: ADME, organism-based, Macaca fascicularis; settings: in vivo
Midbrain [22] = test: Drug uptake in anesthetized cynomolgus monkey brain midbrain after 187.5 mins postinjection; type: ADME, organism-based, Macaca fascicularis; settings: in vivo, 3.125 h
Putamen [23] = test: Drug uptake in anesthetized cynomolgus monkey brain putamen after 192.5 mins postinjection; type: ADME, organism-based, Macaca fascicularis; settings: in vivo
Thalamus [24] = test: Drug uptake in anesthetized cynomolgus monkey brain thalamus after 187.5 mins postinjection; type: ADME, organism-based, Macaca fascicularis; settings: in vivo, 3.125 h
Medulla [25] = test: Drug uptake in anesthetized cynomolgus monkey brain medulla after 202.5 mins postinjection; type: ADME, organism-based, Macaca fascicularis; settings: in vivo, 3.375 h
Pons [26] = test: Drug uptake in anesthetized cynomolgus monkey brain pons after 187.5 mins postinjection; type: ADME, organism-based, Macaca fascicularis; settings: in vivo, 3.125 h
Thalamus [27] = test: Drug uptake in anesthetized cynomolgus monkey brain thalamus after 182.5 mins postinjection; type: ADME, organism-based, Macaca fascicularis; settings: in vivo
[28] = Drug uptake in anesthetized cynomolgus monkey brain occipital lobe after 197.5 mins postinjection; type: ADME, organism-based, Macaca fascicularis; settings: in vivo
Midbrain [29] = test: Drug uptake in anesthetized cynomolgus monkey brain midbrain after 207.5 mins postinjection; type: ADME, organism-based, Macaca fascicularis; settings: in vivo
[30] = Drug uptake in anesthetized cynomolgus monkey brain cerebellum after 207.5 mins postinjection; type: ADME, organism-based, Macaca fascicularis; settings: in vivo
Medulla [31] = test: Drug uptake in anesthetized cynomolgus monkey brain medulla after 182.5 mins postinjection; type: ADME, organism-based, Macaca fascicularis; settings: in vivo
Thalamus [32] = test: Drug uptake in anesthetized cynomolgus monkey brain thalamus after 202.5 mins postinjection; type: ADME, organism-based, Macaca fascicularis; settings: in vivo, 3.375 h
Caudate [33] = test: Drug uptake in anesthetized cynomolgus monkey brain caudate after 207.5 mins postinjection; type: ADME, organism-based, Macaca fascicularis, Caudate nucleus; settings: in vivo
Medulla [34] = test: Drug uptake in anesthetized cynomolgus monkey brain medulla after 192.5 mins postinjection; type: ADME, organism-based, Macaca fascicularis; settings: in vivo
[35] = Drug uptake in anesthetized cynomolgus monkey brain cerebellum after 192.5 mins postinjection; type: ADME, organism-based, Macaca fascicularis; settings: in vivo
Putamen [36] = test: Drug uptake in anesthetized cynomolgus monkey brain putamen after 182.5 mins postinjection; type: ADME, organism-based, Macaca fascicularis; settings: in vivo

Q: For `O=C(OCC[18F])C1C2CCC(CC1c1cccc(/C=C\Br)c1)N2` (stereo unspecified), which Drug uptake [1] is on record?
A: 2.35

Q: And the Ratio [2]?
A: 1.8

Q: And the Drug uptake [3]?
A: 2.87

Q: What about the Drug uptake [4] of the same compound?
A: 2.68

Q: And the Drug uptake [5]?
A: 1.86

Q: What about the Drug uptake [6] of the same compound?
A: 2.37

Q: And the Drug uptake [7]?
A: 2.68

Q: Which results are given for `O=C(OCCC[18F])C1C2CCC(CC1c1cccc(/C=C\Br)c1)N2` (stereo unspecified)?
A: Drug uptake [8]: 2.71; Drug uptake (Putamen [9]): 3.78; Drug uptake (Pons [10]): 3.24; Drug uptake [11]: 2.27; Drug uptake (Pons [12]): 3.48; Drug uptake (Thalamus [13]): 3.83; Drug uptake (Pons [14]): 3.68; Drug uptake (Caudate [15]): 3.62; Drug uptake [16]: 2.13; Drug uptake (Midbrain [17]): 4.79; Drug uptake [18]: 2.23; Drug uptake [19]: 2.16; Drug uptake (Caudate [20]): 3.64; Drug uptake (Medulla [21]): 3.73; Drug uptake (Midbrain [22]): 4.65; Drug uptake (Putamen [23]): 3.92; Drug uptake (Thalamus [24]): 3.88; Drug uptake (Medulla [25]): 3.68; Drug uptake (Pons [26]): 3.85; Drug uptake (Thalamus [27]): 3.94; Drug uptake [28]: 2.91; Drug uptake (Midbrain [29]): 4.46; Drug uptake [30]: 1.86; Drug uptake (Medulla [31]): 4.22; Drug uptake (Thalamus [32]): 3.84; Drug uptake (Caudate [33]): 3.41; Drug uptake (Medulla [34]): 3.98; Drug uptake [35]: 2.38; Drug uptake (Putamen [36]): 4.09

— ChEMBL document CHEMBL1151757, “Synthesis, radiosynthesis, and biological evaluation of fluorine-18-labeled 2beta-carbo(fluoroalkoxy)-3beta-(3'-((Z)-2-haloethenyl)phenyl)nortropanes: candidate radioligands for in vivo imaging of the serotonin transporter with positron emission tomography” (J Med Chem, 2008)
